Laboratory results reported in patent US20240239849A1, “PEPTIDE ENTITIES WITH ANTIMICROBIAL ACTIVITY AGAINST MULTI-DRUG RESISTANT PATHOGENS” (CENTRO DE INVESTIGACIÓN Y DESARROLLO DE MEDICAMENTOS. CIDEM, priority 2020, published 2024).

Tests used:
[1] = tested on: K. pneumoniae (multi-resistant clinical isolate); test: checkerboard test, Meropenem/peptide combinations; format: cell-based, Klebsiella pneumoniae; details: meropenem alone, denominator of FICA
Procedure: (§1) Only strains from clinical isolates of Gram-negative bacteria Klebsiella pneumoniae and Gram-positive Staphylococcus aureus multiresistant to antibiotics were chosen to carry out the combination tests between the peptides. The experiments were carried out according to the methodology of the test described as “checkerboard” or checkerboard [Huang, R.-y., et al., Isobologram Analysis: A Comprehensive Review of Methodology and Current Research. Frontiers in Pharmacology, 2019. 10: p. 1222] This test allows the determination of the fractional inhibitory concentration index (FICI) following Equation 3, which establishes the classification of the effects obtained as follows: synergy (FICI≤0.5), additive (0.5<FICI≤ 1), indifferent (1<FICI≤2) and antagonism (FICI>2).
(§2) Where: MICA: minimum inhibitory concentration of compound A; MICB: minimum inhibitory concentration of compound B; MICAB: minimum concentration of A that combined with B inhibits growth; MICBA: minimum concentration of B that combined with A inhibits growth. The checkerboard experiment was performed in sterile 96-well polypropylene plates (Eppendorf, Germany). Isolated colonies of each bacterium were used to create 1×10^5 CFU bacterial cultures in PBS, referred to as a working culture. In addition, 64 μM stock solutions of the peptides were prepared in PBS. Two-fold dilutions in PBS of each peptide were made in 50 μL final volume. […]

[2] = tested on: S. aureus (multi-resistant clinical isolate); test: checkerboard test, Meropenem/peptide combinations; format: cell-based, Staphylococcus aureus; details: meropenem alone, denominator of FICA
Procedure: as §1, §2

MICA (minimum inhibitory concentration of compound A) [1]: 8.0 mg/L
MICA (minimum inhibitory concentration of compound A) [2]: 8.0 mg/L
Compound: C[C@@H](O)[C@H]1C(=O)N2C(C(=O)O)=C(S[C@@H]3CN[C@H](C(=O)N(C)C)C3)[C@H](C)[C@H]12 [MER, Meropenem, reference compound]
